2 compounds from article PMC3515674 (Angewandte Chemie (International ed. in English), 2011) can be followed below.

Where two headings read alike, the source gives them in different places. Ends that are not written are not given here. MCA = 7-methoxycoumarin-4-acetic acid

This assay concerns the target T1, purified human α2M (Homo sapiens, UniProt P01023).
T1 sequence (P01023 24-1474): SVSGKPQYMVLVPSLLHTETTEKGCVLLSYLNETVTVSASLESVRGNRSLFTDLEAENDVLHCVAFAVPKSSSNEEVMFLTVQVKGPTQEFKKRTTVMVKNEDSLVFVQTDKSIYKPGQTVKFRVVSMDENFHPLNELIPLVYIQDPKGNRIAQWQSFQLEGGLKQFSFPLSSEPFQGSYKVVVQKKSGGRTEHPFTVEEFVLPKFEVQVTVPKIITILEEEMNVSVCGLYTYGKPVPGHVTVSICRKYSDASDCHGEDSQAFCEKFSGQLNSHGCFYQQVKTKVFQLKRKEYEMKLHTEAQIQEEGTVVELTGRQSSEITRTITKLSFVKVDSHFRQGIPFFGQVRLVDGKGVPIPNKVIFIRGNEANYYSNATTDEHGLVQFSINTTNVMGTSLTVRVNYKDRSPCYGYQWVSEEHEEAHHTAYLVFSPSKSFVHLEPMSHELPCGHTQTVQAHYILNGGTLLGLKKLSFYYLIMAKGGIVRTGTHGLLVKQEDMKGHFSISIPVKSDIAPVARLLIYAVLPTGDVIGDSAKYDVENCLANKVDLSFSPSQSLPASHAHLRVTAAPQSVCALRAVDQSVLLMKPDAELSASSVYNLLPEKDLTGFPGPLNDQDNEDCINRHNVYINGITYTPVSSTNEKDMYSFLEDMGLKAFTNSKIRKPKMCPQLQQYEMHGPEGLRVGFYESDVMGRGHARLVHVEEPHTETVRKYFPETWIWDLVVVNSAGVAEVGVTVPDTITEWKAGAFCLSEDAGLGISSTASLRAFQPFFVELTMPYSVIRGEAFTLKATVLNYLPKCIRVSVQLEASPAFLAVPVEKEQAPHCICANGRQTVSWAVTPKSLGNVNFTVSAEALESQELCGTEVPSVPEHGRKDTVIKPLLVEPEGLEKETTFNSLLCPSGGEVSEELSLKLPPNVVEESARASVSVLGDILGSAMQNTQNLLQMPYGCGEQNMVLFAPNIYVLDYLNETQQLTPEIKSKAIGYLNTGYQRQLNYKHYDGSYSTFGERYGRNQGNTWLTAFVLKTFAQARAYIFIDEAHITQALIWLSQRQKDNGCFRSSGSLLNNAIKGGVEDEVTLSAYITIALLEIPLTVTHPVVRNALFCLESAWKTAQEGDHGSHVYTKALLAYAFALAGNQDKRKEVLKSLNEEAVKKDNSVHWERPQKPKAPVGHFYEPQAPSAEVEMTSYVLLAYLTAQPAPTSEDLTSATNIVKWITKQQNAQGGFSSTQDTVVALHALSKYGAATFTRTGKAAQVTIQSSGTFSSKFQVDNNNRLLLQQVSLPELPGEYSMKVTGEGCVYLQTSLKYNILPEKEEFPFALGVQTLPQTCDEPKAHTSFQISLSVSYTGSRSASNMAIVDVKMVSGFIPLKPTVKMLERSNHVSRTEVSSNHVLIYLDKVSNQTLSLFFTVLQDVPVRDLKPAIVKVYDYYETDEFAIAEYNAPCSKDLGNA
The assay is classed as biochemical.

In the case of `O=[N+]([O-])c1ccc(OP(=O)(O)Oc2ccc([N+](=O)[O-])cc2)cc1` [BNPP, bis-p-nitrophenyl-phosphate], the “inhibition of α2M deacylating activity” value is given as 40%. Further, the “inhibition of α2M deacylating activity” value (100 µM) was determined as 0%.

In the case of “ghrelin-MCA: full length acylated ghrelin containing the fluorophore 7-methoxycoumarin-4-acetic acid (MCA) at the C-terminus (GSSFLSPEHQRVQQRKESKKPPAKLQPR-{MCA}; also: octanoyl acylated, position not given here; UniProt Q9UBU3 24-51, looked up)”, the Km came out at 24 ± 3 µM and the kcat was determined as 0.023 ± 0.001 min⁻¹.

For orientation: Km means the concentration of substrate that gives half-maximal velocity. Usually kcat stands for the maximal rate divided by the concentration of active sites.
